# Target: MAPK14 (human) (UniProt Q16539)
# Test: Inhibition of MAPK14 Kinase Activity
# Sequence of MAPK14 (human) (Q16539 whole entry, looked up): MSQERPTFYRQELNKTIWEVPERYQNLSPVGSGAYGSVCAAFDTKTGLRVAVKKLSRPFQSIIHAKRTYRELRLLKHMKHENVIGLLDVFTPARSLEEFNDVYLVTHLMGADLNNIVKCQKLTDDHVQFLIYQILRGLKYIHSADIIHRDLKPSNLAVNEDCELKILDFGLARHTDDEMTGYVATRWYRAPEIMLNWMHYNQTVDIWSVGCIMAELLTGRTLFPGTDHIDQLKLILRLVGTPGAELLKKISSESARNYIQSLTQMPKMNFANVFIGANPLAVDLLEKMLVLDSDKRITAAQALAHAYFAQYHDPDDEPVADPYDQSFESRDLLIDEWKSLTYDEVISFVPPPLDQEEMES
row,Structure (SMILES),IC50 [µM]
1,COC(=O)c1sc(NC(=O)Nc2cc(C(C)(C)C)nn2-c2ccc(F)cc2)c(C)c1Cl,< 15
2,CC(C)(C)c1cc(NC(=O)Nc2ccc(C(=O)N3CCOCC3)s2)n(-c2ccc(F)cc2)n1,< 15
3,Cc1c(NC(=O)Nc2cc(C(C)(C)C)nn2-c2ccc(F)cc2F)sc(C(=O)N2CCOCC2)c1Cl,< 15
4,Cc1c(NC(=O)Nc2cc(C(C)(C)C)nn2-c2ccc(F)cc2)sc(C(=O)NCc2ccncc2)c1Cl,< 15
5,Cc1c(NC(=O)c2ccc(F)cc2)sc(C(=O)N2CCOCC2)c1Cl,< 15
6,COC(=O)c1sc(NC(=O)c2ccc(F)cc2)c(C)c1C#N,< 15
7,Cc1c(NC(=O)Nc2nnc(N3CCOCC3)s2)sc(C(=O)N2CCOCC2)c1Cl,< 15
8,CCOC(=O)c1ccc(NC(=O)Nc2cc(C(C)(C)C)nn2-c2ccc(F)cc2)s1,< 15
9,COC(=O)c1sc(NC(=O)Nc2cc(C(C)(C)C)nn2-c2ccc(F)cc2)c(C#N)c1C,< 15
10,COC(=O)c1sc(NC(=O)c2cc(F)cc(N3CCOCC3)c2)c(C)c1Cl,< 15
11,Cc1c(NC(=O)Nc2cc(C(C)(C)C)nn2-c2ccc(F)cc2)sc(C(=O)N2CCOCC2)c1Cl,< 15
12,Cc1c(NC(=O)c2ccc(F)cc2)sc(C(=O)Nc2ccc(F)cc2)c1Cl,< 15

# Next, values leading:
row,IC50 [µM],Structure (SMILES)
1,< 15,Cc1c(NC(=O)Nc2cc(C(C)(C)C)nn2-c2ccc(F)cc2)sc(C(=O)N2CCN(C)CC2)c1Cl
2,< 15,Cc1cc(NC(=O)c2cc(F)cc(N3CCOCC3)c2)sc1C(=O)N1CCOCC1
3,< 15,Cc1c(NC(=O)c2cc(F)cc(N3CCOCC3)c2)sc(C(=O)N2CCOCC2)c1Cl
4,< 15,Cc1c(NC(=O)c2cc(F)cc(N3CCOCC3)c2)sc(C(=O)Nc2ccc(F)cc2)c1Cl
5,< 15,Cc1c(NC(=O)Nc2nnc(C3CCCCC3)s2)sc(C(=O)N2CCOCC2)c1Cl

# Reference: the Kinase Knowledgebase extract (Sharma et al. 2016)
